The values that follow come from US20080063636A1, “Variant Amyloid Protein” (priority 2004, published 2008).

This assay concerns human cultured cell HEK cells. Put plainly: Quantification of amyloid protein secreted by HEK cells expressing APP cDNA. On the set-up: Aβ42: unit not given here. Type of assay: cell-based. To be noted: secreted by HEK cells expressing the APP cDNA, 2 days, culture supernatant. The source says: Since the variant APP gene cDNA obtained in Example 1 had the variant inside the amyloid protein, a β secretase or γ secretase cleavage site was examined. Then, an expression vector of the variant APP gene cDNA was introduced into human cultured cell HEK cells known to express APP as well as to produce and secrete amyloid protein. The expression was left to occur for 2 days to obtain a culture supernatant, and an immunoprecipitated fraction obtained by using an anti-amyloid protein antibody was subjected to a mass analysis with the use of AXIMA-CFR manufactured by Shimadzu Corporation.
Note that a vacant expression vector dissolved into a normal saline was used as the control in Table 1. Also, Aβ42 represents Aβ1-42 and Aβ1-43 or Aβ1-42 (ΔE) and Aβ1-43 (ΔE), and Aβ40 represents Aβ1-40 or Aβ1-40 (ΔE).

With “Wildtype APP: wildtype amyloid precursor protein expressed in human cultured HEK cells”, the Aβ40 (Aβ40 = Aβ1-40 or Aβ1-40 (ΔE)) stood at 200 pg/mL. Where the note is “Aβ42 = Aβ1-42 and Aβ1-43 or their ΔE forms”, this substance had an Aβ42 of 26.
